From patent US20040259783A1, “Pharmaceutical compositions of marine sponge microciona prolifera” (priority 2001, published 2004)

Experiments:
[1] = tested on: rat aortic smooth muscle cells, A-10; test: Smooth muscle cell migration in vitro assay (scrape injury); assay type: cell-based; details: concentration giving 100% inhibition of smooth muscle cell motility, incubation up to 24 hrs
Description: The following in vitro assays were conducted to illustrate the effect of peptides, carbohydrates and extract (2.7K) on the smooth muscle cell migration. The cells used in the following example were rat aortic smooth muscle cells, A-10. The cells were seeded at 2.5×10^5 cells/well in 6 well plates using Dulbecco's Modified Eagle Medium (Gibco BRL Cat. # 11885-084),10% FBS and 1% Antibiotic Antimycotic (Gibco BRL Cat. # 15240). Confluency of cells after about 8 hrs was between 80˜90%. Cells were injured with the single edge cell scraper (one injury/well) then washed twice with PBS and treated with peptides B-1 (SEQ ID NO:1), B-2 (SEQ ID NO:2 ), B-3 (SEQ ID NO: 3), B-6, (SEQ ID NO: 4), B-9(SEQ ID NO:5), B-10(SEQ ID NO:6) AND B-11(SEQ ID NO: 7) at concentrations ranging from 10 μg/ml ml to 100 μg/ml. Images were taken using a X5 modulation objective (Zeiss, Germany) attached to a Zeiss Axiovert 100 inverted microscope equipped with Hoffman Modulation contrast optical filters (Greenvale, N.Y.).
The images were taken at zero time and following the incubation of smooth muscle cells with peptide, carbohydrates and extracts for a period of up to 24 hrs (FIGS. 1, 2, 3 and 4).

[2] = tested on: EAE mouse model; test: EAE mouse model (acute EAE induced with MBP and PTX); assay type: in vivo; details: 5 mg/kg daily; for clinical signs of MS symptoms: improvement in mean clinical score and delay in progression to disability; for mean clinical score: day 15, scale of 0 to 5, PBS treated mice 1.7 (B-9 study), 1.5 (B-1 study)
Description: The EAE mouse model is the standard animal model used for testing therapeutic compounds in the treatment of multiple sclerosis (MS). Acute EAE was induced by immunization of 3 months old SJL/J female mice (Jackson Lab.; Bar Harbor, Me.) with the MBP (myelin basic protein) and PTX (pertussis toxin). Each animal received an s.c. injection at tail base of 200 μg MBP in 0.1 ml of CFA and received an i.v. injection of 200 ng of PTX; pertussis toxin was injected again 48 hours later. Mice (4 animals per group) were treated with the peptide B-1 (SEQ ID NO: 1) or peptide B-9 (SEQ ID NO: 5) at a dose of 5 mg/kg daily; injections starting on the day of first immunization. Treatment was stopped at time of sacrifice. Mice were monitored daily from day 7 after immunization for clinical signs of EAE and were scored on a scale of 0 to 5. A score of 0 represented the absence of signs while a score of 5 was given to moribund animals.

[3] = MAF carbohydrates and MAF 2.7 K extract

| Compound | 100% Inhibition of Cell Motility ([1]; MAFp3 peptides) | clinical signs of MS symptoms [2] | mean clinical score [2] | 100% Inhibition of Cell Motility [1, 3] |
| --- | --- | --- | --- | --- |
| GVSVRRYRNRVRI (listed as Microciona prolifera) [Peptide B-1] | 100 µg/mL | significant attenuation | 0.7 | – |
| RFVINITTSGSD (artificial peptide derived from Microciona prolifera) [Peptide B-9, 12 amino acid synthetic peptide derived from MAF] | 20 µg/mL | significant attenuation | 0.6 | – |
| EDQLDAMNLS (artificial peptide derived from Microciona prolifera) [Peptide B-3, 10 amino acid synthetic peptide derived from MAF] | 50 µg/mL | – | – | – |
| CFLTPHGVELHK (artificial peptide derived from Microciona prolifera) [Peptide B-10, 12 amino acid synthetic peptide derived from MAF] | 100 µg/mL | – | – | – |
| NGSIGPRGLPGVRGDRGKRGK (artificial peptide derived from Microciona prolifera) [Peptide B-11] | 75˜100 μg/ml | – | – | – |
| CC(=O)N[C@H]1[C@H](O[C@@H]2[C@H](O)[C@H](C)OC(O)[C@H]2O)O[C@H](CO)[C@@H](O)[C@@H]1O (stereo partly shown) [RR-1 disaccharides, GlcNAcβ1-3Fuc] | – | – | – | 5˜10 μg/mL |
| CC(=O)NC1C(OC2C(O)C(C)OC(O)C2O)OC(CO)C(OC2OC3COC(C)(C(=O)O)OC3C(O)C2O)C1O (stereo not shown) [RR-5 trisaccharides, (4,6-Pyr)Galβ1-4GlcNAcβ1-3Fuc] | – | – | – | 25 µg/mL |
| GSGIGDEPTTS (artificial peptide derived from Microciona prolifera) [Peptide B-6, 11 amino acid synthetic peptide derived from MAF] | 50˜75 μg/ml | – | – | – |
| VGFDPYDYEVNEADG (artificial peptide derived from Microciona prolifera) [Peptide B-2, 15 amino acid synthetic peptide, derived from MAF] | 50 to 100 µg/mL | – | – | – |
